Laboratory results from patent publication US20110224193A1, “INHIBITORS OF DIACYLGLYCEROL ACYLTRANSFERASE” (MERCK SHARP & DOHME CORP, priority 2008, published 2011).
pIC50: −log10 of the molar value. Each block holds one molecule with its values, some of them ahead of it.

Molecular target: T1, human DGAT1 enzyme (Homo sapiens, UniProt O75907)
T1 construct: made in house; host or cells: Sf9 insect cells (microsomes)
T1 sequence (O75907 1-488): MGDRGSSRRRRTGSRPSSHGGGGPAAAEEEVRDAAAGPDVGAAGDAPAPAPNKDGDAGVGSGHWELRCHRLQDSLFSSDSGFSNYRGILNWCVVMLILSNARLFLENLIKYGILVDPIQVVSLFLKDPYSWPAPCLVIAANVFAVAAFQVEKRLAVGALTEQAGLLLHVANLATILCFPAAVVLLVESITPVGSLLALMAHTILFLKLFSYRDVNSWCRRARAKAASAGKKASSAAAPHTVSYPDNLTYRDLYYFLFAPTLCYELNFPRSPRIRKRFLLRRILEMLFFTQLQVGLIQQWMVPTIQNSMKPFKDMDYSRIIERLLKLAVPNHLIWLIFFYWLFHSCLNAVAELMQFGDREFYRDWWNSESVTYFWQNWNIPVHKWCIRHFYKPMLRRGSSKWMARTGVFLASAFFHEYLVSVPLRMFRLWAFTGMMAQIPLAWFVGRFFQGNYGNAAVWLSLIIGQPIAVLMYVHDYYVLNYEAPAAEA
Assay: in vitro DGAT1 inhibition assay (microsomes, [14C]-palmitoyl-CoA, SPA beads)
Type: biochemical
Settings: human DGAT1 expressed in Sf9 insect cell microsomes, 2 hours at room temperature; read-out: hDGAT IC50
Procedure: A useful assay to determine the DGAT inhibitory activity of the inventive compounds is described below:
The in vitro assay to identify DGAT1 inhibitors uses human DGAT1 enzyme expressed in Sf9 insect cells prepared as microsomes. The reaction is initiated by the addition of the combined substrates 1,2-dioleoyl-sn-glycerol and [^14C]-palmitoyl-Co A and incubated with test compounds and microsomal membranes for 2 hours at room temperature. The assay is stopped by adding 0.5 mg wheat germ agglutinin beads in assay buffer with 1% Brij-35 and 1% 3-cholamidopropyldimethyl-ammonio-1-propane sulfonate. Plates are sealed with TopSeal and incubated for 18 hours to allow the radioactive triglyceride product to come into proximity with the bead. Plates are read on a TopCount instrument.
Percent inhibition was calculated as the percent of (test compound inhibition minus non-specific binding) relative to (total binding minus non-specific binding). IC50 values were determined by curve fitting the data to a Sigmoidal dose-response in GraphPad Prism utilizing the following equation:
Y=A+(B−A)/(1+10̂((Log IC50−X))),
where A and B are the bottom and top of the curve (highest and lowest inhibition), respectively, and X is the logarithm of concentration.

pIC50: 6.30 to 7.00
SMILES: O=C(Nc1ccc(N2CCC(O)(c3ccccc3)CC2)nc1)c1oc(-c2ccccc2)nc1C(F)(F)F [Compound 78]

pIC50: 6.30 to 7.00
SMILES: O=C(Nc1ccc(N2CCC(=O)N(Cc3ccccc3)CC2)nc1)c1oc(-c2ccccc2)nc1C(F)(F)F [Compound 157]

pIC50: 7.00 to 7.96
SMILES: O=C(Nc1ccc(N2CCN(C(=O)C(O)C(F)(F)F)CC2)nc1)c1oc(-c2ccccc2)nc1C(F)(F)F (centres unmarked) [Compound 164]

pIC50: 7.00 to 7.96
SMILES: O=C(Nc1ccc(N2CCN(C(=O)[C@H](O)c3ccccc3)CC2)nc1)c1oc(-c2ccccc2)nc1C(F)(F)F [Compound 165]

pIC50: 7.00 to 7.96
SMILES: O=C(Nc1ccc(N2CCN(C(=O)[C@H](O)C3CCCCC3)CC2)nc1)c1oc(-c2ccccc2)nc1C(F)(F)F [Compound 169]

pIC50: 7.00 to 7.96
SMILES: O=C(Nc1ccc(N2CCN(C(=O)[C@@H](O)C3CCCCC3)CC2)nc1)c1oc(-c2ccccc2)nc1C(F)(F)F [Compound 170]

pIC50: 7.00 to 7.96
SMILES: O=C(Nc1ccc(N2CCN(C(=O)C(O)c3ccc4c(c3)OCO4)CC2)nc1)c1oc(-c2ccccc2)nc1C(F)(F)F (centres unmarked) [Compound 176]

pIC50: 7.00 to 7.96
SMILES: O=C(Nc1ccc(N2CCCN(C(=O)C(O)C(F)(F)F)CC2)nc1)c1oc(-c2ccccc2)nc1C(F)(F)F (centres unmarked) [Compound 181]

The remaining lines, values behind:

SMILES: O=C(Nc1ccc(N2CCN(Cc3ccccc3)C(=O)C2)nc1)c1oc(-c2ccccc2)nc1C(F)(F)F [Compound 62]
pIC50: 7.00 to 7.96

SMILES: O=C(Nc1ccc(N2CCC(n3c(=O)[nH]c4ccccc43)CC2)nc1)c1oc(-c2ccccc2)nc1C(F)(F)F [Compound 72]
pIC50: 6.30 to 7.00

SMILES: O=C(Nc1ccc(N2CCC(O)(c3ccccc3)CC2)nc1)c1nc(-c2ccccc2)oc1C(F)(F)F [Compound 82]
pIC50: 6.30 to 7.00

SMILES: O=C(Nc1ccc(N2CCC(CCc3ccccc3)CC2)nc1)c1oc(-c2ccccc2)nc1C(F)(F)F [Compound 151]
pIC50: 6.30 to 7.00

SMILES: O=C(Nc1ccc(N2CCC(OCc3ccccc3)CC2)nc1)c1oc(-c2ccccc2)nc1C(F)(F)F [Compound 153]
pIC50: 7.00 to 7.96

SMILES: O=C(Nc1ccc(N2CCC(C(O)c3ccccc3)CC2)nc1)c1oc(-c2ccccc2)nc1C(F)(F)F (centres unmarked) [Compound 155]
pIC50: 7.00 to 7.96

SMILES: O=C(Nc1ccc(N2CCN(C(=O)C(O)c3ccc(Cl)cc3)CC2)nc1)c1oc(-c2ccccc2)nc1C(F)(F)F (centres unmarked) [Compound 168]
pIC50: 7.00 to 7.96

SMILES: O=C(Nc1ccc(N2CCN(C(=O)C(O)Cc3ccccc3)CC2)nc1)c1oc(-c2ccccc2)nc1C(F)(F)F (centres unmarked) [Compound 171]
pIC50: 7.00 to 7.96

SMILES: O=C(O)CC(O)(C(=O)N1CCN(c2ccc(NC(=O)c3oc(-c4ccccc4)nc3C(F)(F)F)cn2)CC1)C(F)(F)F (centres unmarked) [Compound 172]
pIC50: 7.00 to 7.96

SMILES: O=C(Nc1ccc(N2CCCN(C(=O)[C@H](O)c3ccccc3)CC2)nc1)c1oc(-c2ccccc2)nc1C(F)(F)F [Compound 179]
pIC50: 7.00 to 7.96

SMILES: O=C(Nc1ccc(N2CCCN(C(=O)[C@H](O)C3CCCCC3)CC2)nc1)c1oc(-c2ccccc2)nc1C(F)(F)F [Compound 180]
pIC50: 7.00 to 7.96

SMILES: O=C(Nc1ccc(N2CCCN(C(=O)[C@H](O)c3ccc(F)c(F)c3)CC2)nc1)c1oc(-c2ccccc2)nc1C(F)(F)F [Compound 182]
pIC50: 7.00 to 7.96
